Where a name gives a salt, the structure may show the parent alone.
Tests used:
human SERT = human SERT (Homo sapiens (Human), UniProt P31645); experiment: human SERT binding assay with [3H]-citalopram on HEK-293 membranes; conditions: read-out: hSERT binding Ki
Method: (§1) Receptor binding was performed using membrane fractions prepared from the HEK-293 cell line recombinantly expressing rat 5-HT7 receptors (NCBI accession NM_022938). Compound affinity for the rat 5-HT7 receptor subtype was evaluated by competitive radioligand binding assays using 5-carboxamido[^3H]tryptamine ([^3H]5-CT) (Amersham Biosciences, cat. 90000403) detection. HitHunter™ cAMP assays are in-vitro based competitive immunoassays. The assay was performed on the HEK-293 cell line stably transfected with r5-HT7 receptor. Cells were pre-incubated with test compounds for 10 minutes. For antagonist testing, the cells were then challenged with 100 nM 5-CT for 20 minutes. Cells were then lysed and cAMP measured according to manufacturers protocol (Amersham, cat. NET791250UC) or [^3H]mesulergine (Amersham, cat. TRK1041). The assay was performed on membranes prepared from HEK-293 cells stably transfected with h5-HT6. Following centrifugation, membranes were resuspended and incubated for 60 min at room temperature with 1.7 nM [^3H]LSD in the presence of increasing concentration of test compounds. Nonspecific binding was defined in the presence of 10 μM clozapine (Tocris, cat. TRK1068). Homogenized HEK-293 membranes expressing the human SERT were incubated in 50 mM Tris-HCl (pH 7.5), 120 mM NaCl, 5 mM KCl with [^3H]-citalopram (3 nM) with or without test compounds. Nonspecific binding was determined in the presence of 10 μM fluoxetine. Radioactivity readouts and Ki values were performed as previously described for r5-HT7. […] Compounds were assayed in their free form or as salts, as indicated in the Examples section above.

r5-HT7 receptor = r5-HT7 receptor (Rattus norvegicus (Rat), UniProt P32305); experiment: HitHunter cAMP assay, antagonist testing against 100 nM 5-CT; assay type: cell-based; conditions: antagonist testing, 100 nM 5-CT challenge, HEK-293 r5-HT7; read-out: R5HT7 cAMP pKb (converted)
Method: as §1

rat 5-HT7 receptor = rat 5-HT7 receptor (Rattus norvegicus (Rat), UniProt P32305); experiment: r5-HT7 binding assay, competitive radioligand binding with [3H]5-CT
Outline: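 For h5-HT6, stably transfected HEK-293 membranes were exposed to 1.7 nM [3H]LSD plus increasing compound for 60 min at room temperature, with 10 μM clozapine for nonspecific binding. The r5-HT7 assay used [3H]5-CT competition on recombinant HEK-293 membranes, Ki derived from radioactivity counts.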

[1] = rat 5-HT7 receptor, HEK-293 membranes

human SERT, sequence (P31645 whole entry): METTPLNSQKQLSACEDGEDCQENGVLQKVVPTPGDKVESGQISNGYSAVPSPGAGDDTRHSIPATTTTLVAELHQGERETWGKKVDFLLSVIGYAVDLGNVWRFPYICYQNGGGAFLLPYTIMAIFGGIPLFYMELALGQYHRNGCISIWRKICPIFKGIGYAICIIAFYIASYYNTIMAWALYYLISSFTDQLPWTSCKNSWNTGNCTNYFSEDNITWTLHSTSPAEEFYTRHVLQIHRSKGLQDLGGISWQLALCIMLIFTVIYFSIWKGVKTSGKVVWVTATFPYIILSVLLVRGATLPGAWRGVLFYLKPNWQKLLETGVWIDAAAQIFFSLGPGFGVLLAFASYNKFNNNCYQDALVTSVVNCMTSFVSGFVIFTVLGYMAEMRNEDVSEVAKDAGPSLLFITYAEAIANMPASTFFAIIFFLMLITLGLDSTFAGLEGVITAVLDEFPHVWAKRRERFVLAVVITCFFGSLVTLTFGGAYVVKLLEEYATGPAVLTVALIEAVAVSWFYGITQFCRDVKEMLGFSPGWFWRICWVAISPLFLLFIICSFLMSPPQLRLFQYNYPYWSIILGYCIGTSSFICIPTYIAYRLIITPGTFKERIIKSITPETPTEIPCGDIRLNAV
rat 5-HT7 receptor, sequence (P32305 1-435): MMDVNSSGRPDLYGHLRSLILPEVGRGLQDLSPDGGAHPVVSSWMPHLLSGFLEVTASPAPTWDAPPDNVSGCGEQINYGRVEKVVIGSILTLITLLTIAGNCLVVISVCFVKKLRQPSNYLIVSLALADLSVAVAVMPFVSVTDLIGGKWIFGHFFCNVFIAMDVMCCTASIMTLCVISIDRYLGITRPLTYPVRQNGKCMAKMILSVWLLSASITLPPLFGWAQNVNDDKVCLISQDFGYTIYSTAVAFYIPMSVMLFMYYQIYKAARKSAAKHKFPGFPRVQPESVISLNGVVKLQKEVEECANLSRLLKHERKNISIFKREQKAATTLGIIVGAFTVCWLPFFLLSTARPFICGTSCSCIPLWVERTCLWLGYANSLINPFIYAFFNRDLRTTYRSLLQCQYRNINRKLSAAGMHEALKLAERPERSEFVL
r5-HT7 receptor, sequence (P32305 1-435): as above

Ki (rat 5-HT7 receptor; rat 5-HT7, HEK-293 membranes)	SMILES	Ki (human SERT)	Kb (r5-HT7 receptor)	Ki (rat 5-HT7 receptor; [1])
–	CC(Oc1ccc(Cl)cc1OC1CNC1)c1cccc(C(F)(F)F)c1 (racemic) [Example 105, (±)-3-[5-Chloro-2-[1-(3-trifluoromethyl-phenyl)-ethoxy]-phenoxy]-azetidine]	193 nM	50.1 nM	23 nM
–	CC(Oc1ccc(Cl)cc1OC1CNC1)c1cccc(Cl)c1 (racemic) [Example 114, (±)-3-[5-Chloro-2-[1-(3-chloro-phenyl)-ethoxly]-phenoxy]-azetidine]	75 nM	31.6 nM	14 nM
–	Fc1ccc2c(c1)C(Oc1ccc(Cl)cc1OC1CNC1)CC2 (racemic) [Example 150, (±)-3-[5-Chloro-2-(6-fluoro-indan-1-yloxy)-phenoxy]-azetidine]	13 nM	10 nM	10 nM
–	Clc1ccc2c(c1)CCC2Oc1ccc(Br)cc1OC1CNC1 (racemic) [Example 152, (±)-3-[5-Bromo-2-(5-chloro-indan-1-yloxy)-phenoxy]-azetidine]	25 nM	39.8 nM	19 nM
–	Fc1ccc2c(c1)CCC2Oc1ccc(Br)cc1OC1CNC1 (racemic) [Example 154, (±)-3-[5-Bromo-2-(5-fluoro-indan-1-yloxy)-phenoxy]-azetidine]	13 nM	20 nM	18 nM
–	FC(F)(F)c1ccc2c(c1)C(Oc1ccc(Br)cc1OC1CNC1)CC2 (racemic) [Example 157, (±)-3-[5-Bromo-2-(6-trifluoromethyl-indan-1-yloxy)-phenoxy]-azetidine]	181 nM	5.01 nM	10 nM
–	Brc1ccc(OCc2ccccc2)c(OC2CNC2)c1 [Example 1, 3-(2-Benzyloxy-5-bromo-phenoxy)-azetidine]	48 nM	12.6 nM	9 nM
–	Clc1cccc(COc2ccc(Br)cc2OC2CN(C3CCC3)C2)c1 [Example 3, 3-[5-Bromo-2-(3-chloro-benzyloxy)-phenoxy]-1-cyclobutyl-azetidine]	381 nM	2.51 nM	18 nM
–	CC(C)N1CC(Oc2cc(Br)ccc2OCc2cccc(Cl)c2)C1 [Example 5, 3-[5-Bromo-2-(3-chloro-benzyloxy)-phenoxy]-1-isopropyl-azetidine]	194 nM	5.01 nM	8 nM
–	CCN1CC(Oc2cc(Br)ccc2OCc2cccc(Cl)c2)C1 [Example 6, 3-[5-Bromo-2-(3-chloro-benzyloxy)-phenoxy]-1-ethyl-azetidine]	249 nM	3.98 nM	6 nM
–	FC(F)(F)Oc1cccc(COc2ccc(Br)cc2OC2CNC2)c1 [Example 7, 3-[5-Bromo-2-(3-trifluoromethoxy-benzyloxy)-phenoxy]-azetidine]	23 nM	63.1 nM	10 nM
–	FC(F)(F)c1cccc(COc2ccc(Br)cc2OC2CNC2)c1 [Example 8, 3-[5-Bromo-2-(3-trifluoromethyl-benzyloxy)-phenoxy]-azetidine]	4 nM	7.94 nM	6 nM
–	N#Cc1cccc(COc2ccc(Br)cc2OC2CNC2)c1 [Example 9, 3-[2-(Azetidin-3-yloxy)-4-bromo-phenoxymethyl]-benzonitrile]	2 nM	20 nM	11 nM
–	Fc1ccc(COc2ccc(Br)cc2OC2CNC2)cc1Cl [Example 12, 3-[5-Bromo-2-(3-chloro-4-fluoro-benzyloxy)-phenoxy]-azetidine]	6 nM	3.16 nM	11 nM
–	COc1ccc(COc2ccc(Br)cc2OC2CNC2)cc1Cl [Example 13, 3-[5-Bromo-2-(3-chloro-4-methoxy-benzyloxy)-phenoxy]-azetidine]	6 nM	3.98 nM	4 nM
–	Clc1ccc(COc2ccc(Br)cc2OC2CNC2)cc1 [Example 14, 3-[5-Bromo-2-(4-chloro-benzyloxy)-phenoxy]-azetidine trifluoroacetate]	52 nM	158 nM	12 nM
–	CCN1CC(Oc2cc(Br)ccc2OCc2cccc(F)c2)C1 [Example 18, 3-[5-Bromo-2-(3-fluoro-benzyloxy)-phenoxy]-1-ethyl-azetidine]	435 nM	1.58 nM	5 nM

Ki (rat 5-HT7 receptor; rat 5-HT7, HEK-293 membranes)	SMILES	Ki (human SERT)	Kb (r5-HT7 receptor)	Ki (rat 5-HT7 receptor; [1])
–	CCCN1CC(Oc2cc(Br)ccc2OCc2cccc(F)c2)C1 [Example 19, 3-[5-Bromo-2-(3-fluoro-benzyloxy)-phenoxy]-1-propyl-azetidine]	396 nM	2 nM	4 nM
–	Fc1ccc(COc2ccc(Cl)cc2OC2CNC2)cc1 [Example 25, 3-[5-Chloro-2-(4-fluoro-benzyloxy)-phenoxy]-azetidine hydrochloride]	19 nM	39.8 nM	18 nM
–	COc1cccc(COc2ccc(Cl)cc2OC2CNC2)c1 [Example 33, 3-[5-Chloro-2-(3-methoxy-benzyloxy)-phenoxy]-azetidine]	8 nM	15.8 nM	7 nM
–	N#Cc1cccc(COc2ccc(Cl)cc2OC2CNC2)c1 [Example 34, 3-[2-(Azetidin-3-yloxy)-4-chloro-phenoxymethyl]-benzonitrile]	1 nM	39.8 nM	29 nM
–	Clc1ccc(OCc2ccccc2Cl)c(OC2CNC2)c1 [Example 35, 3-[5-Chloro-2-(2-chloro-benzyloxy)-phenoxy]-azetidine trifluroacetate]	3 nM	1000 nM	23 nM
–	Clc1ccc(COc2ccc(Cl)cc2OC2CNC2)cc1 [Example 36, 3-[5-Chloro-2-(4-chloro-benzyloxy)-phenoxy]-azetidine trifluoroacetate]	36 nM	794 nM	15 nM
–	FC(F)(F)c1cccc(COc2ccc(Cl)cc2OC2CNC2)c1 [Example 39, 3-[5-Chloro-2-(3-trifluoromethyl-benzyloxy)-phenoxy]-azetidine]	4 nM	3.16 nM	7 nM
–	Clc1ccc(OCc2ccccc2)c(OC2CNC2)c1 [Example 40, 3-(2-Benzyloxy-5-chloro-phenoxy)-azetidine]	43 nM	39.8 nM	9 nM
–	FC(F)(F)c1cc(COc2ccc(Cl)cc2OC2CNC2)ccc1Cl [Example 49, 3-[5-Chloro-2-(4-chloro-3-trifluoromethyl-benzyloxy)-phenoxy]-azetidine]	40 nM	25.1 nM	13 nM
–	Clc1ccc(OCc2ccc(Cl)c(Cl)c2)c(OC2CNC2)c1 [Example 50, 3-[5-Chloro-2-(3,4-dichloro-benzyloxy)-phenoxy]-azetidine]	5 nM	31.6 nM	10 nM
–	FC(F)(F)c1ccc(COc2ccc(Cl)cc2OC2CCNCC2)o1 [Example 63, 4-[5-Chloro-2-(5-trifluoromethyl-furan-2-ylmethoxy)-phenoxy]-piperidine hydrochloride]	48 nM	25.1 nM	7 nM
–	Clc1ccc(OC2CCCc3ccccc32)c(OC2CNC2)c1 (centres unmarked) [Example 161, 3-[5-Chloro-2-(1,2,3,4-tetrahydro-naphthalen-1-yloxy)-phenoxy]-azetidine]	60 nM	15.8 nM	28 nM
–	Clc1ccc(OC2Cc3ccccc3C2)c(OC2CNC2)c1 [Example 173, 3-[5-Chloro-2-(indan-2-yloxy)-phenoxy]-azetidine]	56 nM	7.94 nM	7 nM
–	Brc1ccc(OC2Cc3ccccc3C2)c(OC2CNC2)c1 [Example 174, 3-[5-Bromo-2-(indan-2-yloxy)-phenoxy]-azetidine]	42 nM	6.31 nM	6 nM
21 nM	Clc1cccc(Oc2ccc(Cl)cc2OC2CNC2)c1 [Example 257, 3-[5-Chloro-2-(3-chloro-phenoxy)-phenoxy]-azetidine maleate]	–	501 nM	–
48 nM	O=C(c1ccc(Cl)cc1)c1ccc(Br)cc1OC1CNC1 [Example 281, [2-(Azetidin-3-yloxy)-4-bromo-phenyl]-(4-chloro-phenyl)-methanone]	–	316 nM	–
39 nM	O=C(c1cccc(Cl)c1)c1ccc(Br)cc1OC1CNC1 [Example 282, [2-(Azetidin-3-yloxy)-4-bromo-phenyl]-(3-chloro-phenyl)-methanone]	–	200 nM	–

SMILES	Ki (rat 5-HT7 receptor; rat 5-HT7, HEK-293 membranes)	Ki (human SERT)	Kb (r5-HT7 receptor)	Ki (rat 5-HT7 receptor; [1])
Clc1ccc(Oc2ccc(Cl)cc2OC2CNC2)cc1 [Example 258, 3-[5-Chloro-2-(4-chloro-phenoxy)-phenoxy]-azetidine trifluoroacetate]	23 nM	–	501 nM	–

From patent US9981909B2 (Janssen Pharmaceutica NV, priority 2008, dated 2018)
